Assay results: patent publication US12391674B2, “Heterocyclic compounds for the treatment of epilepsy” (OTSUKA PHARMACEUTICAL CO., LTD., priority 2018, dated 2025)
Where two headings read alike, the source gives them in different places.

System: DBA/2 mice
Experiment: Audiogenic seizure model
Type: in vivo
Details: Mus musculus, read-out: Seizure suppression
Protocol: The animal model used in this test is a phenotype model for partial seizure (including secondary generalized seizure) and generalized tonic-clonic seizure, and has high clinical predictability. This test was performed in accordance with the report of De Sarro et al (Br J Pharmacol. 1988 February; 93 (2): 247-56. Anticonvulsant effects of some calcium entry blockers in DBA/2 mice. De Sarro G B, Meldrum B S, Nistico G.).
In this test example, the example compounds shown in Tables 3-1 to 3-3 below were used as test compounds.
The test compounds were suspended in 5% gum arabic/distilled water (w/v), and administered by forced oral administration to male and female DBA/2 mice (Japan SLC, Inc., 3 weeks old, 8 per group) at a dose of 30 mg/kg. After one hour of the oral administration of the test compound, each mouse was placed in a transparent acrylic cylinder 30 cm high and 23 cm in diameter, and 30 seconds were allowed for habituation. Then, they were exposed to auditory stimulation (12.6 kHz, 100-110 dB) for 1 minute or until a tonic seizure occurred.
The seizure response was assessed using the following scale, 0: no seizure, 1: wild running, 2: clonic seizure, 3: tonic seizure and 4: respiratory arrest. The maximum response was recorded as the seizure severity score.
The seizure suppression rate for each compound administration group was calculated according to the following formula.
Here, a rate of seizure suppression of 90% or more was expressed as “A”, a rate of seizure suppression of 70% or more and less than 90% was expressed as “B”, and a rate of seizure suppression of 50% or more and less than 70% was expressed as “C”.

[1] = DBA/2 mice, oral, auditory stimulation 1 hour after administration
[2] = DBA/2 mice, oral, dose 30 mg/kg, auditory stimulation 1 hour after administration

| Compound | inhibition in vivo at 30 mg/kg [2] | other results |
| --- | --- | --- |
| c1ccc(Oc2ncc(-c3ccncc3)cn2)cc1 [Example 9] | – | inhibition in vivo at 5 mg/kg [1]: > 90% |
| COc1ccc(-c2cnc(Oc3cccc(C(F)(F)F)c3)nc2)nn1 [Example 12] | – | inhibition in vivo at 3 mg/kg [1]: > 90% |
| Cc1ccc(-c2cnc(Oc3cccc(C(F)(F)F)c3)nc2)nn1 [Example 13] | – | inhibition in vivo at 3 mg/kg [1]: > 90% |
| FC(F)(F)c1cccc(Oc2ncc(-c3cccnc3)cn2)c1 [Example 14] | > 90% | – |
| Cc1ccc(-c2cnc(Oc3cccc(C(F)(F)F)c3)nc2)cn1 [Example 15] | > 90% | – |
| COc1ccc(-c2cnc(Oc3cccc(C(F)(F)F)c3)nc2)cn1 [Example 16] | > 90% | – |
| Cc1ccc(-c2cnc(Oc3cc(F)cc(F)c3)nc2)nn1 [Example 17] | > 90% | – |
| Fc1cc(F)cc(Oc2ncc(-c3cccnc3)cn2)c1 [Example 18] | > 90% | – |
| COc1ccc(-c2cnc(Oc3cc(F)cc(F)c3)nc2)nn1 [Example 19] | > 90% | – |
| Nc1ccc(-c2cnc(Oc3ccc(F)cc3)nc2)nn1 [Example 20] | > 90% | – |
| Cc1ccc(-c2cnc(Oc3cccc(F)c3)nc2)nn1 [Example 21] | > 90% | – |
| COc1cc(-c2cnc(Oc3ccccc3)nc2)ccn1 [Example 23] | > 90% | – |
| Cc1ccc(-c2cnc(Oc3ccccc3F)nc2)nn1 [Example 25] | > 90% | – |
| Cc1cccc(Oc2ncc(-c3ccc(C)nc3)cn2)c1 [Example 28] | > 90% | – |
| COc1ccc(-c2cnc(Oc3cccc(C)c3)nc2)cn1 [Example 29] | > 90% | – |
| Fc1cccc(Oc2ncc(-c3ccnnc3)cn2)c1 [Example 32] | > 90% | – |
| Cc1cccc(Oc2ncc(-c3cccnc3)cn2)c1 [Example 35] | > 90% | – |
| FC(F)c1ccc(-c2cnc(Oc3ccccc3)nc2)cn1 [Example 37] | > 90% | – |
| Nc1ccc(-c2cnc(Oc3c(F)cccc3F)nc2)nn1 [Example 39] | > 90% | – |
| Nc1ccc(-c2cnc(Oc3cc(F)cc(F)c3)nc2)nn1 [Example 41] | > 90% | – |
| Nc1ccc(-c2cnc(Oc3cccc(F)c3)nc2)cn1 [Example 43] | > 90% | – |
| Nc1ccc(-c2cnc(Oc3ccc(F)cc3)nc2)cn1 [Example 44] | > 90% | – |
| Nc1ccc(-c2cnc(Oc3ccccc3F)nc2)cn1 [Example 45] | – | inhibition in vivo at 5 mg/kg [1]: > 90% |
| Fc1cccc(Oc2ncc(-c3ccc(C(F)(F)F)nn3)cn2)c1 [Example 46] | > 90% | – |
| Cc1ncccc1-c1cnc(Oc2cccc(F)c2)nc1 [Example 47] | > 90% | – |

| Compound | inhibition in vivo at 30 mg/kg [2] | other results |
| --- | --- | --- |
| Nc1ccc(-c2cnc(Oc3cccc(OC(F)(F)F)c3)nc2)cn1 [Example 48] | > 90% | – |
| Cc1ncccc1-c1cnc(Oc2ccc(F)cc2)nc1 [Example 49] | > 90% | – |
| Clc1ccc(-c2cnc(Oc3ccccc3)nc2)cn1 [Example 51] | > 90% | – |
| Nc1ccc(-c2cnc(Oc3c(F)cccc3F)nc2)cn1 [Example 52] | > 90% | – |
| Nc1ccc(-c2cnc(Oc3cc(F)cc(F)c3)nc2)cn1 [Example 53] | > 90% | – |
| Cc1ncccc1-c1cnc(Oc2c(F)cccc2F)nc1 [Example 54] | > 90% | – |
| Cc1ncccc1-c1cnc(Oc2cc(F)cc(F)c2)nc1 [Example 56] | – | inhibition in vivo at 30 mg/kg (po, 1 h): > 90% |
| Fc1ccc(Oc2ncc(-c3ccc(C(F)(F)F)nn3)cn2)cc1 [Example 57] | – | inhibition in vivo at 30 mg/kg (po, 1 h): > 90% |
| [O-][n+]1cccc(-c2cnc(Oc3ccccc3F)nc2)c1 [Example 60, 3-(2-(2-Fluorophenoxy)Pyrimidin-5-Yl)Pyridine 1-Oxide] | > 90% | – |
| [O-][n+]1cccc(-c2cnc(Oc3cccc(F)c3)nc2)c1 [Example 61] | > 90% | – |
| [O-][n+]1cccc(-c2cnc(Oc3ccc(F)cc3)nc2)c1 [Example 62] | > 90% | – |
| COc1ccc(-c2cnc(Oc3cc(F)ccc3F)nc2)nn1 [Example 63, 3-(2-(2,5-Difluorophenoxy)Pyrimidin-5-Yl)-6-Methoxypyridazine] | > 90% | – |
| COc1ccc(-c2cnc(Oc3ccc(F)cc3F)nc2)nn1 [Example 65] | > 90% | – |
| FC(F)(F)Oc1cccc(Oc2ncc(-c3ccc(C(F)(F)F)nn3)cn2)c1 [Example 67] | > 90% | – |
| COc1ccc(-c2cnc(Oc3cccc(F)c3F)nc2)nn1 [Example 68] | > 90% | – |
| CC(C)(O)c1ccc(-c2cnc(Oc3ccccc3)nc2)nn1 [Example 69, 2-(6-(2-Phenoxypyrimidin-5-Yl)Pyridazin-3-Yl) Propan-2-Ol] | > 90% | – |
| Cc1ccc(-c2cnc(Oc3ccccc3)nc2)c(C)n1 [Example 70] | > 90% | – |
| COc1ccc(-c2cnc(Oc3cccc(Cl)c3)nc2)nn1 [Example 71] | > 90% | – |
| OCc1ccc(-c2cnc(Oc3ccccc3)nc2)nn1 [Example 72, (6-(2-Phenoxypyrimidin-5-Yl)Pyridazin-3-Yl) Methanol] | > 90% | – |
| COc1ccc(-c2cnc(Oc3cccc(C#N)c3)nc2)nn1 [Example 73] | > 90% | – |
| Nc1nccc(-c2cnc(Oc3ccccc3)nc2)n1 [Example 75] | > 90% | – |
| Cc1ncccc1-c1cnc(Oc2cccc(C(F)(F)F)c2)nc1 [Example 76] | > 90% | – |
| Cc1ncccc1-c1cnc(Oc2cccc(OC(F)(F)F)c2)nc1 [Example 77] | > 90% | – |
| Nc1cc(-c2cnc(Oc3cccc(F)c3)nc2)ccn1 [Example 78] | > 90% | – |
| Nc1cc(-c2cnc(Oc3ccc(F)cc3)nc2)ccn1 [Example 79] | > 90% | – |

| Compound | inhibition in vivo at 30 mg/kg [2] | other results |
| --- | --- | --- |
| Nc1cc(-c2cnc(Oc3ccccc3F)nc2)ccn1 [Example 80] | > 90% | – |
| Nc1cc(-c2cnc(Oc3cccc(C(F)(F)F)c3)nc2)ccn1 [Example 81] | > 90% | – |
| Nc1cc(-c2cnc(Oc3cc(F)cc(F)c3)nc2)ccn1 [Example 82] | > 90% | – |
| Nc1cc(-c2cnc(Oc3cccc(OC(F)(F)F)c3)nc2)ccn1 [Example 83] | > 90% | – |
| Nc1ccc(-c2cnc(Oc3cc(F)ccc3F)nc2)cn1 [Example 84, 5-(2-(2,5-Difluorophenoxy)Pyrimidin-5-Yl)Pyridin-2-Amine] | > 90% | – |
| Nc1ccc(-c2cnc(Oc3ccc(F)c(F)c3)nc2)cn1 [Example 85] | > 90% | – |
| Nc1ccc(-c2cnc(Oc3ccc(F)cc3F)nc2)cn1 [Example 86] | > 90% | – |
| Nc1ccc(-c2cnc(Oc3cccc(F)c3F)nc2)cn1 [Example 87] | > 90% | – |
| Cc1cccc(Oc2ncc(-c3ccc(N)nc3)cn2)c1 [Example 88, 5-(2-(m-Tolyloxy)Pyrimidin-5-Yl)Pyridin-2-Amine] | > 90% | – |
| N#Cc1cccc(Oc2ncc(-c3ccc(N)nc3)cn2)c1 [Example 89] | > 90% | – |
| O=C1CCC(c2cnc(Oc3cccc(F)c3)nc2)=NN1 [Example 94, 6-(2-(3-Fluorophenoxy)Pyrimidin-5-Yl)-4,5-Dihydropyridazin-3 (2H)-One] | > 90% | – |
| O=C1CCC(c2cnc(Oc3ccccc3F)nc2)=NN1 [Example 96] | > 90% | – |
| O=C1CCC(c2cnc(Oc3cccc(C(F)(F)F)c3)nc2)=NN1 [Example 100] | > 90% | – |
| O=C1CCC(c2cnc(Oc3c(F)cccc3F)nc2)=NN1 [Example 104] | > 90% | – |
| O=C1CCC(c2cnc(Oc3cc(F)cc(F)c3)nc2)=NN1 [Example 105] | > 90% | – |
| Cc1cccc(Oc2ncc(-c3ccc(=O)[nH]c3)cn2)c1 [Example 106, 5-(2-(m-Tolyloxy)Pyrimidin-5-Yl)Pyridin-2 (1H)-One] | – | inhibition in vivo at 5 mg/kg [1]: > 90% |
| O=c1ccc(-c2cnc(Oc3cc(F)ccc3F)nc2)n[nH]1 [Example 108] | > 90% | – |
| O=c1ccc(-c2cnc(Oc3ccc(F)cc3F)nc2)n[nH]1 [Example 109] | > 90% | – |
| O=c1ccc(-c2cnc(Oc3cccc(F)c3F)nc2)n[nH]1 [Example 110] | > 90% | – |
| O=c1ccc(-c2cnc(Oc3cccc(Cl)c3)nc2)n[nH]1 [Example 111] | > 90% | – |
| N#Cc1cccc(Oc2ncc(-c3ccc(=O)[nH]n3)cn2)c1 [Example 112] | > 90% | – |
| O=c1[nH]nccc1-c1cnc(Oc2cccc(F)c2)nc1 [Example 115] | > 90% | – |
| O=c1cc(-c2cnc(Oc3ccccc3)nc2)cn[nH]1 [Example 116] | > 90% | – |
| O=c1[nH]nccc1-c1cnc(Oc2ccccc2F)nc1 [Example 117] | > 90% | – |
| Fc1ccccc1Oc1ncc(-c2ccc3nccn3n2)cn1 [Example 124] | > 90% | – |
